Measurements from publication PMC9381536, “Non-apoptotic cell death induction via sapogenin based supramolecular particles” (Scientific Reports, 2022).

Tests used:
[1] = system: differentially expressed genes; assay: Microarray gene expression analysis (human Clariom D); type: cell-based
Description: To investigate the overall cellular response to AG-08 treatment, microarray gene expression analysis of cells treated with vehicle and AG-08 treated groups was performed. […] Next, protein–protein interaction (PPI) network analysis was evaluated by the STRING (Search Tool for the Retrieval of Interacting Genes/Proteins) network. There were 61 nodes and 145 edges in the network (PPI enrichment p-value < 1 × 10^–16). […] Then, enrichment was performed using GO and KEGG pathway analyses.
Microarray analyses were conducted using the human Clariom D Affymetrix platform following the manufacturer’s instructions (902915, Thermo Fisher Scientific). Briefly, the total RNA was isolated using Total RNA Isolation Kit (Bio-Rad, US). Isolated total RNA was amplified, labeled, and hybridized on Clariom D Affymetrix platform. The arrays were stained by using GeneChip Fluidics Station 450. The cartridge was scanned with the GeneChip Scanner 3000 7G System (Affymetrix CA, USA).

Calnexin = Calnexin immunofluorescence; type: cell-based; details: AG-08 treated cells
Source text: Figure 3 mRNA microarray analysis was used to identify differentially expressed genes via AG-08 treatment. (A) Heatmap representing the expressions of 193 genes with significant different expression in AG-08 treated cells compared with control. Heatmap was generated by GraphPad Prism version 8 (https://www.graphpad.com/scientific-software/prism/). (B) Protein–protein network analysis was formed via STRING. The thickness of the connecting lines indicates the strength of data support for physical and/or functional associations. (C) Pathway enrichment was determined using GO, KEGG, and Reactome pathway analysis. […] Size of circle represents the significance of enrichment. (D) The protein levels of CHOP were determined via IB. 0.5 µg/ml tunicamycin (Tun) was used as positive control. The experiments were repeated three times independently; with one representative result shown. (E) mRNA level of the CHOP was investigated using quantitative PCR (q-RTPCR). Error bars represent standard error (s.e.). p-values were calculated with respect to vehicle-treated cells by one-way Anova test. (**p < 0.005, ****p < 0.0001). (F) The expression and localization of Calnexin protein were evaluated using immunofluorescence via anti-Calnexin antibody (scale bar 25 µm).
Cells were grown on glass coverslips and treated with AG-08. […] Mounted samples were analyzed by fluorescence microscopy (Olympus IX70, Japan).

HCC1937 = system: HCC1937; parameters: method as in PMID 33136369; details: cited from earlier work
[2] = fold change ≥ 3.0, p-value ≤ 0.05

Cc1ccc(S(=O)(=O)OC2CCC3(C)C4=CCC5(C)C(C6(C)CCC(C(C)(C)O)O6)C(O)CC5(C)C4C=CC3C2(C)C)cc1 (centres unmarked) [AG-08]
Gene expression level (Log2) ([1]; AC006548.19, control 6.1): 4.15 Log2 | Gene expression level (Log2) ([1]; AC068797.1, control 6.72): 4.17 Log2 | Gene expression level (Log2) ([1]; AC079949.1, control 5.75): 7.8 Log2 | Gene expression level (Log2) ([1]; ACSM3, control 6.76): 4.97 Log2 | Gene expression level (Log2) ([1]; AKAP12, control 6.27): 9.04 Log2 | Gene expression level (Log2) ([1]; AL161626.1, control 2.85): 4.86 Log2 | Gene expression level (Log2) ([1]; ATF3, control 5.19): 7.04 Log2 | Gene expression level (Log2) ([1]; CCL20, control 12.58): 15.79 Log2 | Gene expression level (Log2) ([1]; CHAC1, control 7.22): 9.98 Log2 | Gene expression level (Log2) ([1]; CREB5, control 8.35): 11.14 Log2 | Gene expression level (Log2) ([1]; CSF3, control 3.29): 5.21 Log2 | Gene expression level (Log2) ([1]; CSRNP1, control 5.26): 7.09 Log2 | Gene expression level (Log2) ([1]; CXCL2, control 8.19): 10.58 Log2 | Gene expression level (Log2) ([1]; CXCL3, control 6.99): 9.67 Log2 | Gene expression level (Log2) ([1]; CXCL8, control 9.63): 12.86 Log2 | Gene expression level (Log2) ([1]; DAW1, control 4.73): 7.07 Log2 | Gene expression level (Log2) ([1]; DDIT3, control 5.64): 8.56 Log2 | Gene expression level (Log2) ([1]; DNAJB9, control 8.13): 10.33 Log2 | Gene expression level (Log2) ([1]; DUSP1, control 10.95): 12.84 Log2 | Gene expression level (Log2) ([1]; ERO1B, control 6.9): 8.83 Log2 | Gene expression level (Log2) ([1]; ETS1, control 11.21): 13.17 Log2 | Gene expression level (Log2) ([1]; FGF5, control 4.09): 6.46 Log2 | Gene expression level (Log2) ([1]; FRMD6, control 7.12): 9.43 Log2 | Gene expression level (Log2) ([1]; GADD45A, control 11.09): 13.43 Log2 | Gene expression level (Log2) ([1]; GEM, control 4.45): 6.45 Log2 | Gene expression level (Log2) ([1]; HERPUD1, control 13.87): 15.89 Log2 | Gene expression level (Log2) ([1]; HSP90B1, control 8.38): 10.67 Log2 | Gene expression level (Log2) ([1]; HSPA1A, control 13.53): 15.75 Log2 | Gene expression level (Log2) ([1]; HSPA7, control 4.94): 7.45 Log2 | Gene expression level (Log2) ([1]; IL1A, control 10.2): 12.9 Log2 | Gene expression level (Log2) ([1]; IL1RL1, control 6.82): 10.06 Log2 | Gene expression level (Log2) ([1]; IL6, control 9.32): 11.97 Log2 | Gene expression level (Log2) ([1]; JUN, control 10.47): 12.32 Log2 | Gene expression level (Log2) ([1]; KRT5, control 11.75): 9.49 Log2 | Gene expression level (Log2) ([1]; LRRC49, control 6.77): 8.59 Log2 | Gene expression level (Log2) ([1]; MAP1B, control 7.26): 9.32 Log2 | Gene expression level (Log2) ([1]; MIR1284, control 5.93): 3.95 Log2 | Gene expression level (Log2) ([1]; MIR6515, control 4.75): 6.96 Log2 | Gene expression level (Log2) ([1]; NR4A1, control 6.63): 8.84 Log2 | Gene expression level (Log2) ([1]; PTGS2, control 9.7): 11.9 Log2 | Gene expression level (Log2) ([1]; RCAN1, control 11.4): 13.43 Log2 | Gene expression level (Log2) ([1]; RN7SKP36, control 4.9): 6.69 Log2 | Gene expression level (Log2) ([1]; RNA18S5, control 10): 12.08 Log2 | Gene expression level (Log2) ([1]; RNU11-6P, control 5.74): 3.79 Log2 | Gene expression level (Log2) ([1]; RP5-1180E21.5, control 9.91): 7.94 Log2 | Gene expression level (Log2) ([1]; RP11-74J13.9, control 5.92): 3.93 Log2 | Gene expression level (Log2) ([1]; RP11-253I19.3, control 5.74): 3.7 Log2 | Gene expression level (Log2) ([1]; RP11-632K20.8, control 8.77): 6.86 Log2 | Gene expression level (Log2) ([1]; SERPINE1, control 7.07): 9.03 Log2 | Gene expression level (Log2) ([1]; SIRPG-AS1, control 6.81): 4.97 Log2 | Gene expression level (Log2) ([1]; SPRR2A, control 6.12): 8.31 Log2 | Gene expression level (Log2) ([1]; SPRY4, control 4.5): 6.6 Log2 | Gene expression level (Log2) ([1]; TNFAIP3, control 12.92): 15.77 Log2 | Gene expression level (Log2) ([1]; TNFAIP6, control 7.73): 10.32 Log2 | Gene expression level (Log2) ([1]; TNFRSF9, control 6.22): 8.07 Log2 | Fold changes ([1]; UPR gene ATF3): 3.61 | Fold changes ([1]; UPR gene CXCL8): 9.38 | Fold changes ([1]; UPR gene DAW1): 5.06 | Fold changes ([1]; UPR gene DDIT3 (CHOP)): 7.57 | Fold changes ([1]; UPR gene DNAJB9): 4.59 | Fold changes ([1]; UPR gene HERPUD1): 4.06 | Fold changes ([1]; UPR gene HSP90B1): 4.89 | Fold changes ([1]; UPR gene HYOU1): 3.14 | Gene expression level (Log2) ([1]; Y_RNA, control 2.96): 4.88 Log2 | Gene expression level (Log2) ([1]; beyly, control 5.86): 3.88 Log2 | Gene expression level (Log2) ([1]; bonawbu, control 6.42): 4.47 Log2 | Gene expression level (Log2) ([1]; borflaw, control 4.1): 6.24 Log2 | Gene expression level (Log2) ([1]; cheeju, control 7.11): 4.53 Log2 | Gene expression level (Log2) ([1]; chergy, control 8.48): 6.6 Log2 | Gene expression level (Log2) ([1]; chostarby, control 9.01): 6.86 Log2 | Gene expression level (Log2) ([1]; choygey, control 9.26): 11.85 Log2 | Gene expression level (Log2) ([1]; dymabu, control 7.28): 4.94 Log2 | Gene expression level (Log2) ([1]; ferchor, control 6.47): 4.51 Log2 | Gene expression level (Log2) ([1]; floynabo, control 3.01): 5.07 Log2 | Gene expression level (Log2) ([1]; flyleyby, control 5.79): 3.87 Log2 | Gene expression level (Log2) ([1]; flyspabu, control 6.68): 4.45 Log2 | number of genes downregulated [1, 2]: 115 | number of genes significantly affected [1, 2]: 193 | number of genes upregulated [1, 2]: 78 | Gene expression level (Log2) ([1]; glupuby, control 8.3): 6.47 Log2 | Gene expression level (Log2) ([1]; guzobu, control 4.94): 3.12 Log2 | Gene expression level (Log2) ([1]; hunimo, control 2.97): 4.9 Log2 | Gene expression level (Log2) ([1]; jawrubu, control 6.99): 4.94 Log2 | Gene expression level (Log2) ([1]; keyfybu, control 6.35): 4.42 Log2 | Gene expression level (Log2) ([1]; klobly, control 8.49): 6.7 Log2 | Gene expression level (Log2) ([1]; kluky, control 6.37): 4.18 Log2 | Gene expression level (Log2) ([1]; leeklerbu, control 4.21): 2.34 Log2 | Gene expression level (Log2) ([1]; mazybu, control 5.07): 3.22 Log2 | Gene expression level (Log2) ([1]; muneme, control 5.09): 3.26 Log2 | Gene expression level (Log2) ([1]; myklar, control 6.22): 4.37 Log2 | Gene expression level (Log2) ([1]; plergler, control 8.38): 5.85 Log2 | Gene expression level (Log2) ([1]; rersharbu, control 8.82): 6.82 Log2 | Gene expression level (Log2) ([1]; runara, control 7): 4.96 Log2 | Gene expression level (Log2) ([1]; skaskoyby, control 8.54): 6.69 Log2 | Gene expression level (Log2) ([1]; skeymeybo, control 4.08): 5.88 Log2 | Gene expression level (Log2) ([1]; skoytoyby, control 3.86): 5.73 Log2 | Gene expression level (Log2) ([1]; slorfley, control 5.24): 3.4 Log2 | Gene expression level (Log2) ([1]; slukeebu, control 7.87): 5.7 Log2 | Gene expression level (Log2) ([1]; snawperbu, control 10.99): 8.51 Log2 | Gene expression level (Log2) ([1]; sneykleebu, control 7.89): 5.94 Log2 | Gene expression level (Log2) ([1]; spaforby, control 10.31): 8.45 Log2 | Gene expression level (Log2) ([1]; sparsloy, control 9.51): 7.2 Log2 | Gene expression level (Log2) ([1]; spernawbo, control 7.18): 5.32 Log2 | Gene expression level (Log2) ([1]; sportobo, control 11.14): 9.07 Log2 | Gene expression level (Log2) ([1]; steybleebu, control 9.69): 7.5 Log2 | Gene expression level (Log2) ([1]; swawchu, control 12.82): 10.51 Log2 | Gene expression level (Log2) ([1]; sworkaby, control 2.37): 4.69 Log2 | Gene expression level (Log2) ([1]; swyjee, control 7.88): 6.02 Log2 | Gene expression level (Log2) ([1]; teesnarby, control 5.92): 4.07 Log2 | Gene expression level (Log2) ([1]; vybu, control 2.47): 4.27 Log2 | Gene expression level (Log2) ([1]; vyglabu, control 2.86): 4.99 Log2 | intensity of calnexin staining (Calnexin): significantly increased | IC50 (HCC1937): 3.81 µM
